Assay results reported in article PMC10205683, “Structure Based Discovery of Inhibitors of CYP125 and CYP142 from Mycobacterium tuberculosis” (Chemistry (Weinheim an Der Bergstrasse, Germany), 2023).
Converted amounts (≈) assume the structure as drawn.

How the values were obtained:
CYP125 = biological target: T1, CYP125 (Mycobacterium tuberculosis, UniProt P9WPP1); experiment: biochemical; assay type: binding; settings: UV-Vis spectroscopy
T1 construct: encoding residues 18-433; twin-strep hexahistidine tag (TEV-cleavable) (N, cleaved yes); made in house; host or cells: E. coli C41(DE3), pET21a
T1 sequence (P9WPP1 18-433 limits assumed): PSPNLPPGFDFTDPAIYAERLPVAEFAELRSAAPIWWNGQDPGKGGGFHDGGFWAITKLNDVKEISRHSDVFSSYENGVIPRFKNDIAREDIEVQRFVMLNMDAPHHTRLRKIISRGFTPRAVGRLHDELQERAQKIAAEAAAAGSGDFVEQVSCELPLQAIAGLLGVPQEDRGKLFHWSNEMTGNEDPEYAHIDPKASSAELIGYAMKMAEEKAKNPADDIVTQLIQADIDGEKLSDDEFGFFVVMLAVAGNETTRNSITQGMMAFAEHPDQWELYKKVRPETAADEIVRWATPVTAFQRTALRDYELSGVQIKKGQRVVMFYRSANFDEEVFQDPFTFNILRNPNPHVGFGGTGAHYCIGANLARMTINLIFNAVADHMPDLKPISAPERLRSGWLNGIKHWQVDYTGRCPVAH

CYP142 = biological target: T2, CYP142 (Mycobacterium tuberculosis, UniProt P9WPL5); experiment: biochemical; settings: UV-Vis spectroscopy
T2 sequence (P9WPL5 2-398): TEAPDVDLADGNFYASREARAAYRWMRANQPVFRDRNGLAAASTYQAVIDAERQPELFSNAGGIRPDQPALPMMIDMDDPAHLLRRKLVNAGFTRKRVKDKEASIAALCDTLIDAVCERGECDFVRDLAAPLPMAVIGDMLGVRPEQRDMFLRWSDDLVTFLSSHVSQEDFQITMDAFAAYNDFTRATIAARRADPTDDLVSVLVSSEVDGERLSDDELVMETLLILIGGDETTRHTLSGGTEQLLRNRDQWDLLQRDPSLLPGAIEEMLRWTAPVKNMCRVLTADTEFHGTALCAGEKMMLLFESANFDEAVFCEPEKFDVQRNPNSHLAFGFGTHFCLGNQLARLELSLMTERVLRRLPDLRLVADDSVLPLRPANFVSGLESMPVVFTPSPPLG

Mtb H37Rv (ATCC 27294) = experiment: MIC determination against Mtb H37Rv; assay type: cell-based, Mycobacterium tuberculosis; settings: Mycobacterium tuberculosis
Mtb strain KB019 = experiment: microbe, parasite or virus in culture; assay type: cell-based; settings: Mycobacterium tuberculosis
Mtb strain K18b01MR = experiment: microbe, parasite or virus in culture; assay type: cell-based; settings: Mycobacterium tuberculosis
Mtb strain NIH_G269DR = experiment: microbe, parasite or virus in culture; assay type: cell-based; settings: Mycobacterium tuberculosis
Mtb strain K03b00DS = experiment: MIC determination against Mtb K03b00DS (DS); assay type: cell-based; settings: Mycobacterium tuberculosis
Mtb strain CDC1551 = experiment: MIC determination against Mtb CDC1551 (clinical strain); assay type: cell-based; settings: Mycobacterium tuberculosis
Mtb strain 53 K113 = experiment: microbe, parasite or virus in culture; assay type: cell-based; settings: Mycobacterium tuberculosis
Mtb strain 028 K111 = experiment: microbe, parasite or virus in culture; assay type: cell-based; settings: Mycobacterium tuberculosis

| SMILES | Kd (CYP125) | Kd (CYP142) | also measured |
| --- | --- | --- | --- |
| CCOC(=O)c1cc2cc(-c3ccncc3)ccc2n1CC1CCCCC1 [Compound 7] | 0.31 ± 0.03 µM | 50 ± 10 nM |  |
| CCOC(=O)c1cc2cc(-c3ccncc3)ccc2n1CC1CCNCC1 [Compound 11] | 14.8 ± 0.9 µM | 710 ± 90 nM |  |
| NCc1ccc(-c2cnns2)cc1 [Compound 1] | 57.7 µM | 610 nM |  |
| COc1ccc(-c2ccncc2)cc1 [Compound 2] | 58.5 ± 3.8 µM | 1600 ± 100 nM |  |
| NNC(=O)c1ccncc1 [Isoniazid, reference compound] |  |  | MIC (Mtb H37Rv (ATCC 27294); 168 h, Table S1, H37Rv, […], 1 Week): 0.15 µM (≈ 0.0206 µg/mL) |
| c1cc(-c2ccc3c(ccn3CCN3CCNCC3)c2)ccn1 [Compound 14] | 271 ± 13 µM | 11100 ± 500 nM |  |
| CCOC(=O)c1cc2cc(-c3ccncc3)ccc2n1CC1CCC1 [Compound 9] | 1.1 ± 0.2 µM | 90 ± 10 nM |  |
| NC(=O)c1cc2cc(-c3ccncc3)ccc2n1CC1CCCCC1 [Compound 13] | 0.45 ± 0.04 µM | 30 ± 7 nM |  |
| CCOC(=O)c1cc2cc(-c3ccncc3)ccc2[nH]1 [Compound 4, ethyl 5‐(pyridin‐4‐yl)‐1H‐indole‐2‐carboxylate] | 3 µM | 750 nM |  |
| Cc1noc(-c2cc3cc(-c4ccncc4)ccc3n2CCC2CCNCC2)n1 [Compound 16] | > 100 µM | 390 ± 50 nM | MIC (Mtb H37Rv (ATCC 27294); 168 h): 4.7 µM (≈ 1.82 µg/mL); MIC (Mtb H37Rv (ATCC 27294); 336 h): 12.5 µM (≈ 4.84 µg/mL); MIC (Mtb strain KB019; KB019, 168 h): 9.4 µM (≈ 3.64 µg/mL); MIC (Mtb strain KB019; KB019, 336 h): 12.5 µM (≈ 4.84 µg/mL); MIC (Mtb strain K18b01MR; 168 h): 6.25 µM (≈ 2.42 µg/mL); MIC (Mtb strain K18b01MR; 336 h): 6.25 µM (≈ 2.42 µg/mL); MIC (Mtb strain NIH_G269DR; 168 h): 6.25 µM (≈ 2.42 µg/mL); MIC (Mtb strain NIH_G269DR; 336 h): 9.4 µM (≈ 3.64 µg/mL); MIC (Mtb strain K03b00DS; 168 h): 6.25 µM (≈ 2.42 µg/mL); MIC (Mtb strain K03b00DS; 336 h): 6.25 µM (≈ 2.42 µg/mL); MIC (Mtb strain CDC1551; 168 h): 6.25 µM (≈ 2.42 µg/mL); MIC (Mtb strain CDC1551; 336 h): 6.25 µM (≈ 2.42 µg/mL); MIC (Mtb strain 53 K113; 53K113, 168 h): 6.25 µM (≈ 2.42 µg/mL); MIC (Mtb strain 53 K113; 53K113, 336 h): 6.25 µM (≈ 2.42 µg/mL); MIC (Mtb strain 028 K111; 028K111, 168 h): 6.25 µM (≈ 2.42 µg/mL); MIC (Mtb strain 028 K111; 028K111, 336 h): 6.25 µM (≈ 2.42 µg/mL) |
